This is an account of results in PMC7448123, “Ru(II) Complexes Bearing O, O-Chelated Ligands Induced Apoptosis in A549 Cells through the Mitochondrial Apoptotic Pathway” (Bioinorganic Chemistry and Applications, 2020).

As usually defined, the IC50 is the concentration that inhibits the measured activity by half.

In data set [1] the test system is zebrafish embryos. The data set is described as follows: In vivo toxicity on developing zebrafish embryos.
Method: Zebrafish embryos were provided by the Zebrafish Platform of Affiliated hospital of Guangdong Medical University. […] An inverted microscope was used to observe the hatching and growth of the zebrafish embryos with and without Ru-1 every 24 h. The ethical protocols used for the in vivo zebrafish embryo study were performed in line with the ethics regulations of Guangdong Medical University.
For data set [2], the system named is A549 cells. Description: Comet assay (single-cell gel electrophoresis), DNA damage. Type of data set: cell-based, human. The settings on record: 10 μM, 12 h. The procedure:
Single-cell gel electrophoresis was performed to detect DNA damage, as previously described. Comet assay was performed according to the manufacturer's instructions. DNA was stained with SYBR Green I (Trevigen) and imaged under an inverted fluorescence microscope.
Excessive intracellular ROS can activate DNA damaged sensor proteins and lead to DNA damage, an essential hallmark of cell apoptosis. Indeed, the DNA damage effect has been observed in many previously developed Ru(II) complexes. To determine whether or not these complexes can induce DNA damage, the single-cell gel electrophoresis assay (comet assay) was conducted in our study. […] Also, the comet assay (DNA fragments appearance) could serve as a mark for apoptosis assessment. As shown in Figure 6(a), in the control group, there was no comet-like cell observed. […] Increasing the concentration to 20 μM recorded markedly higher levels of comet tails, showing that more DNA fragmentation has occurred.

In data set [3] the test system is A549 (human lung carcinoma). The data set is described as follows: MTT cytotoxicity assay, A549. Type of data set: cell-based. Particulars: 48 h, MTT. For orientation: Tetrazolium dyes change colour on reduction, which living cells bring about.
Method: (§2) All cell lines were cultured in Roswell Park Memorial Institute 1640 culture media supplemented with 10% fetal bovine serum and incubated at 37°C in a 5% CO2 incubator. The IC50 values in Table 1 were measured by MTT assay according to our previous report [16].
(§3) The cell viability was obtained by the MTT assay.
The test system of data set [4] is MCF-7 (breast cancer). Description: MTT cytotoxicity assay, MCF-7. Type of data set: cell-based, human. Particulars: 48 h.
Method: as §2, §3
The test system of data set [5] is BEAS-2B (immortalized human bronchial epithelial cells). The data set is described as follows: MTT cytotoxicity assay, normal BEAS-2B. Particulars: 48 h. Type of data set: cell-based.
Method: as §2, §3
The subject of data set [6] is A549 cells. Description: Western blotting of apoptosis, Bcl-2 family and DNA damage proteins. Type of data set: cell-based, human. The procedure: Glyceraldehyde-3-phosphate dehydrogenase (GAPDH) was used as an internal control. The protein concentrations were determined by BCA Protein Assay Kit.
(Immunoblotting shows a protein as a band on a membrane.)

The test system of data set [7] is A549 cells. Description: Annexin V-FITC/PI apoptosis flow cytometry. Type of data set: cell-based, human. Particulars: 24 h. The procedure: (§1) First, A549 cells were incubated in six-well plates for 12 h and then exposed to Ru(II) complexes for 24 h. After incubation, cell nuclei were stained with Hoechst 33342 (5 μg/mL) for 10 min, washed twice with PBS, and then photographed using an inverted fluorescence microscope. […] The suspension was stained with 5 μL Annexin V-FITC and 10 μL PI at room temperature for 15 min and then analyzed using the flow cytometer.
(In flow cytometry, cells or beads pass a laser one at a time.)

The test system of data set [8] is HeLa (human cervical cancer). The data set is described as follows: MTT cytotoxicity assay, HeLa. The settings on record: 48 h. Type of data set: cell-based.
Method: as §2, §3
The nature of data set [9]: Solution stability by UV-Vis absorption in water and CH3CN. Type of data set: physicochemical. The settings on record: 298 K, over 24 h, 20 μM. The procedure: (N-N = dip, dmp) and salicylic acid in the presence of sodium hydroxide. The crude product was purified by chromatography over alumina. The obtained compounds were analyzed by elemental analysis, ESI-MS, ^1H NMR, FTIR, and UV-Vis absorption spectroscopy, and the results were shown in Figures S1–S7 in Supplementary Materials. […] In the UV-visible spectral regions, both complexes consist of two well-resolved absorption bands. In the visible region, these two complexes present a strong MLCT transition at 500–600 nm attributed to the overlap Ru(dπ)-dip or dmp (π^∗) and Ru(dπ)-SA (π^∗). The intense band occurring between 250 nm and 300 nm is attributed to an intra-ligand (IL) π-π^∗ transition by comparing with the spectra of other Ru(II)-polypyridyl complexes.

The subject of data set [10] is A549 cells. The data set is described as follows: Cellular uptake and subcellular distribution by ICP-MS. Type of data set: cell-based, human. The procedure:
A549 cells were seeded into six-well plates (5.0 × 10^5 cells per well) and grown overnight at 37°C in a 5% CO2 incubator. The cells were incubated with the different concentrations (5, 10, 15, and 20 μM) of Ru(II) complexes for different time intervals (1, 3, and 6 h). After the incubation, the cells were harvested and washed twice with PBS. Cell Mitochondria Isolation Kit was used to extract the nuclear, mitochondrial, and cytoplasmic fractions of the A549 cells. The pellets were digested with 3 mL concentrated nitric acid and 1 mL perhydrol for 24 h and then diluted to 5 mL with ultrapure water. Finally, ICP-MS was used to determine the amount of Ru(II) complexes uptaken by A549 cells.
It is generally acknowledged that the cellular uptake feature of transition metal-based compounds is an essential factor for their biological activities. As repeatedly reported by previous ruthenium complex-related studies, the more cellular uptake results in higher cytotoxicity. The cellular ruthenium concentration was determined by using ICP-MS after 1, 3, and 6 h of exposure to 5, 10, 15, and 20 μM Ru(II) complexes (Figure 2), respectively, and the results were reported as ng of ruthenium per 10^6 cell number.

Data set [11] deals with A549 cells. Description: Hoechst 33342 nuclear staining. Type of data set: cell-based, human. Particulars: 20 μΜ, 24 h. The procedure: as §1
The nature of data set [12]: Stability towards GSH and BSA by UV-Vis absorption. Type of data set: physicochemical. Particulars: 12 h, 37 °C, PBS buffer (pH 7.4). The procedure: Investigating the hydrolysis in the presence of biorelevant molecules is very important to assess the chemical stability and biological activities of these title complexes.
Figure S8. UV/vis absorption of Ru-1 in the absence and presence of (A) GSH or (B) BSA. All spectra were acquired 12 h after GSH or BSA addition at 37 °C in PBS buffer (pH 7.4).
Figure S9. UV/vis absorption of Ru-2 in the absence and presence of (A) GSH or (B) BSA. All spectra were acquired 12 h after GSH or BSA addition at 37 °C in PBS buffer (pH 7.4).

The subject of data set [13] is HepG2 (human hepatocellular carcinoma). Description: MTT cytotoxicity assay, HepG2. Particulars: 48 h. Type of data set: cell-based.
Method: as §2, §3
Data set [14] has as its system A549 cells. Description: Intracellular ROS level, DCFH-DA flow cytometry. Type of data set: cell-based, human. The settings on record: 20 μM, 12 h. The procedure: The mitochondrial membrane potential (MMP) of A549 cells was analyzed by using an inverted fluorescence microscope and flow cytometry. […] For microscope observation, the collected cells were incubated in complete medium containing JC-1 (10 μg/mL) for 30 min and washed with PBS twice and then imaged by an inverted fluorescence microscope (Nikon, Japan). For flow cytometry analysis, the cells were trypsinized and washed twice with PBS and then incubated in 500 μL PBS containing JC-1 (10 μg/mL) for 30 min at 37°C. The cells were analyzed by flow cytometer immediately. The intracellular ROS level of A549 cells was detected after DCFH-DA stain, as illustrated in our new publication.
Increasing intracellular ROS levels can trigger cell apoptosis. […] To explore the roles of ROS in Ru(II) complex-induced cell apoptosis, we detected intracellular ROS levels by using an inverted fluorescence microscope and flow cytometry after staining A549 cells with DCFH-DA fluorescent dye.

Data set [15] concerns E. histolytica. Details: method as in PMID 17154516. The settings on record: read-out: IC50 anti-E. histolytica activity in vitro; cited from earlier work.

For the molecule `O=C1[O][Ru][O]c2ccccc21.c1ccc(-c2ccnc3c2ccc2c(-c4ccccc4)ccnc23)cc1.c1ccc(-c2ccnc3c2ccc2c(-c4ccccc4)ccnc23)cc1` [Ru-1, [Ru(dip)2(SA)]], the “cumulative hatch rate and lethality rate” value in data set [1] (12.5 μM) is “no difference compared with those of the control group”. Also, the lethality rate result in data set [1] (100 μM, after 96 h) is “lower than 35%”. Moreover, in data set [1] (200 μM, after 72 h treatment), the cumulative hatch result is reported as “lower than 70%”. For the same molecule, the unhealthy features observed result in [1] (200 μM, at 96 h) was “pericardial cysts and spine curvature”. In addition, the side effects entry in [1] (12.5 to 50 μM) is reported as “no apparent side effects”. The development of embryos entry in data set [1] (concentration lower than 50 μM, after 96 h) was “all zebrafish embryos can develop into juvenile zebrafish”. Further, the malformation entry in [1] (concentration lower than 100 μM, at 96 h) is “no malformation was observed”. In data set [2], the “DNA fragmentation, comet assay” value was “well-formed comet tails”. Besides, the IC50 in data set [3] was found to be 11.3 ± 1.1 µM; in [4] it was 29.5 ± 2.2 µM; in data set [5] it was 54.3 ± 3.4 µM; in data set [8] it was 20.1 ± 1.3 µM; in [13], 15.4 ± 1 µM. Moreover, in data set [6], the “cytochrome c expression in cytosol” value was “apparent enhancement”. The “expression levels of antiapoptotic proteins Bcl-2 and Bcl-xl” value in data set [6] is recorded as “downregulated”. In addition, in data set [6], the “expression of proapoptotic protein Bax and Bad” value is on record as “increased expression”. Also, the “phosphorylation levels of Chk1 and Chk2” value in [6] was “increased”. Moreover, the “expression of cleaved-PARP, cleaved caspase-3/8/9” value in data set [6] (24 h, concentration-dependent) was “increased”. Further, the “expression of total caspase-3/8” value in data set [6] (24 h, concentration-dependent) is reported as “decreased”. Besides, the “phosphorylation levels of ATM, ATR, histone, and p53” value in data set [6] (concentration-dependent) was “upregulation”. Moreover, the entries for the “early apoptotic cells (I4)” value in data set [7] (5 μM), in [7] (10 μM) and in data set [7] (20 μM) were 14.71%, 16.27% and 21.57%, respectively. The “late apoptotic/necrotic cells (I2)” value in data set [7] (5 μM) came to 7.13%; in [7] (20 μM), 20.78%. Moreover, the “change in UV-Vis absorption spectra (solution stability)” value in [9] is “no significant change”. Also, the “Intracellular content of Ru” value is on record as 120.3 ± 9.5 ng Ru/10^6 A549 cell number in [10] (5 μM, 1 h); 168.5±13.0 ng Ru/10^6 A549 cell number in [10] (5 μM, 3 h); 241.2±10.6 ng Ru/10^6 A549 cell number in data set [10] (5 μM, 6 h); 146.3±13.7 ng Ru/10^6 A549 cell number in [10] (10 μM, 1 h); 216.8±16.9 ng Ru/10^6 A549 cell number in data set [10] (10 μM, 3 h); 299.4±1.2 ng Ru/10^6 A549 cell number in data set [10] (10 μM, 6 h). In addition, the “Intracellular content of Ru” value in data set [10] (15 μM, 1 h) was 178.5±15.4 ng Ru/10^6 A549 cell number; in data set [10] (15 μM, 3 h) it was 246.7±25.4 ng Ru/10^6 A549 cell number; in [10] (15 μM, 6 h) it was 343.8±17.0 ng Ru/10^6 A549 cell number; in data set [10] (20 μM, 1 h) it was 215.9±19.4 ng Ru/10^6 A549 cell number; in [10] (20 μM, 3 h) it was 312.4±21.5 ng Ru/10^6 A549 cell number; in data set [10] (20 μM, 6 h) it was 432.5 ± 12.4 ng Ru/10^6 A549 cell number. Besides, the Subcellular distribution result in data set [10] (20 μM, nuclear, mitochondrial and cytoplasmic fractions) is “mostly accumulated in the cell nucleus, followed by mitochondria”. In addition, the “apoptotic features, Hoechst 33342 staining” value in data set [11] was “chromatin condensation, nuclear fragmentation, and plasma membrane blebbing”. In data set [12], the “change in characteristic absorption with excessive GSH or BSA (stability)” value is “no significant change”. Further, the “MFI higher than the control group” value in data set [14] was “about 3.0 fold”.

Take `CC(=O)C=C(C)[O-].[Cl-].[Ru+2].c1ccc(CCSCCSCCc2ccccn2)nc1` [[Ru(acac)(pdto)]Cl]: the IC50 in [15] was 0.06 µM.
